The results in this text go back to patent US9149791B2, “Water-soluble carbohydrate polyethers” (TRGel, LLC, priority 2008, dated 2015).

The data set is described as follows: Solubility of monomers and polymers in water and organic solvents. It counts as physicochemical. An excerpt:
The DM trgel monomers as prepared by the methods exemplified in Examples 1-5 above were converted to polymers by the anionic polymerization reaction as illustrated in Reaction Scheme A and the physical properties of homopolymers of differing monomers are presented in Table 1. With reference to Table 1 it should be noted that all of the resulting polymers have very low poly dispersity (Mw/Mn). […] All trgel monomers can be copolymerized randomly or in blocks. Copolymerization of water-soluble and water insoluble monomers results in polymers with controlled solubility in water, including gel forming polymers. Water-soluble polymers are particularly useful in biological applications such as surface protection from non-specific adsorption. The data also illustrates that the glass transition temperature (Tg) of polymers with alkyl substituents decreases as the alkyl chain length increases. […] The DM trgel polymers wherein R=2-methoxyethyl or R=2-(2-methoxyethoxyethyl) show lower critical solution temperature (LCST) behavior.

On to `CCCCCCCCCCO[C@H]1[C@@H]2O[C@@H]2[C@@H]2OC[C@H]1O2` [DDM, 1,6:2,3-dianhydro-4-O-decyl-β-D-mannopyranose], for which, where the note is “hexane”, the Solubility in hexane entry is on record as “soluble”.

Regarding `COCCOC1C2COC(O2)C2OC12` [MEDM, 1,6:2,3-dianhydro-4-O-(2-methoxyethyl)-β-D-mannopyranose], the Solubility in water result is recorded as “soluble”.

Regarding `COCCOCCOCCOC1C2COC(O2)C2OC12` [Monomer T, 1,6:2,3-dianhydro-4-O-(2-(2-(2-metoxyethoxy)ethoxy)ethyl)-β-D-mannopyranose], the Solubility in water result was “soluble”.
